Data on 20 compounds can be found in patent US8354443B2, “Cyclopropane indolinone derivatives” (Hoffmann-La Roche Inc., priority 2009, dated 2013).

The experiment relates to recombinant AMPK proteins (α1β1γ1, α2β1γ1, α1(1-335), α1(1-394) or α2(1-394)). The experiment in a line: Scintillation Proximity Assay (AMPK activation). Type of experiment: biochemical, human. To be noted: effective concentration of activator for 50% of maximal enzyme activity; 2 hr at 30° C.; AMPK form not specified. An excerpt:
Recombinant human AMPK α1β1γ1, α2β1γ1 or AMPK a subunit truncations α1 (1-335), α1 (1-394) and α2(1-394) were constructed, expressed and purified as described previously (Pang, T., Zhang, Z. S., Gu, M., Qiu, B. Y., Yu, L. F., Cao, P. R., Shao, W., Su, M. B., Li, J. Y., Nan, F. J., and Li, J. (2008) or purchased from Invitrogen (San Diego, Calif., U.S.A.). Rat liver AMPK heterotrimer enzyme was obtained from Upstate (Billerica, Mass., U.S.A.).
Before the Scintillation Proximity Assay (SPA) assay, 200 nM recombinant AMPK proteins (α1β1γ1, α2β1γ1, α1(1-335), α1(1-394) or α2(1-394)) were fully phosphorylated as described previously (Pang et al., 2008). SPA reactions were performed in 96-well plates at a final volume of 50 μl containing 20 mM Tris-HCl pH 7.5, 5 mM MgCl2, 1 mM DTT, 2 μM biotin-SAMS, 2 μM ATP, 0.2 μCi/well [γ-^33P]ATP, and various amount of activator. Reactions were initiated by the addition of 50 nM recombinant AMPK proteins to the reaction solutions and incubated at 30° C. for 2 hr. After that, reactions were terminated by the addition of 40 μl stop solution containing 80 μg streptavidin-coated SPA beads per well, 50 mM EDTA, 0.1% Triton X-100 in PBS, pH 7.5 and incubated for 1 hr. Finally, a 160 μl suspension solution containing 2.4 M CsCl, 50 mM EDTA, and 0.1% Triton X-100 in PBS (pH 7.5) was added to the reaction solution to suspend SPA beads completely. SPA signals were determined with a Wallac MicroBeta plate counter (PerkinElmer) 30 min later for calculation of the amount of product formed. The amount of products formed in 2 hr was plotted against activator concentrations to determine the effective concentration of the activator (EC50) required for 50% of maximal enzyme activity.
For orientation: Scintillation proximity formats need no separation of bound from free tracer.

As for `O=C(O)c1cccc(N2C(=O)[C@]3(C[C@@H]3c3ccc(Cl)cc3)c3ccccc32)c1` (racemic) [Example 83, (1S,2R) and (1R,2S)-3-(2-(4-chlorophenyl)-2′-oxospiro[cyclopropane-1,3′-indoline]-1′-yl)benzoic acid], the 50% effective concentration (EC50) came to 2590 nM. To `O=C(O)c1cccc(N2C(=O)[C@]3(C[C@H]3c3ccc(Cl)cc3)c3ccccc32)c1` (racemic) [Example 84, (1S,2S) and (1R,2R)-3-(−2-(4-chlorophenyl)-2′-oxospiro[cyclopropane-1,3′-indoline]-1′-yl)benzoic acid] belongs 2980 nM; to `O=C(c1cccc(N2C(=O)[C@]3(C[C@H]3c3ccc(Cl)cc3)c3ccccc32)c1)N1CCOCC1` (racemic) [Example 85, (1S,2S) and (1R,2R)-2-(4-chlorophenyl)-1′-(3-(morpholine-4-carbonyl)phenyl)spiro [cyclopropane-1,3′-indolin]-2′-one], 950 nM. To `CN1CCN(C(=O)c2cccc(N3C(=O)[C@]4(C[C@H]4c4ccc(Cl)cc4)c4ccccc43)c2)CC1` (racemic) [Example 86, (1S,2S) and (1R,2R)-2-(4-chlorophenyl)-1′-(3-(4-methylpiperazine-1-carbonyl)phenyl) Spiro[cyclopropane-1,3′-indolin]-2′-one] belongs 1730 nM; to `CS(=O)(=O)N1CCN(C(=O)c2cccc(N3C(=O)[C@]4(C[C@H]4c4ccc(Cl)cc4)c4ccccc43)c2)CC1` (racemic) [Example 87, (1S,2S) and (1R,2R)-2-(4-chlorophenyl)-1′-(3-(4-(methylsulfonyl)piperazine-1-carbonyl)phenyl)spiro[cyclopropane-1,3′-indolin]-2′-one], 6730 nM. Turning to `O=C(c1cccc(N2C(=O)[C@@]3(C[C@H]3c3ccc(Cl)cc3)c3ccccc32)c1)N1CCOCC1` (racemic) [Example 88, (1R,2S) and (1S,2R)-2-(4-chlorophenyl)-1′-(3-(morpholine-4-carbonyl)phenyl)spiro [cyclopropane-1,3′-indolin]-2′-one], the EC50 came to 2560 nM. Then `CN1CCN(C(=O)c2cccc(N3C(=O)[C@]4(C[C@@H]4c4ccc(Cl)cc4)c4ccccc43)c2)CC1` (racemic) [Example 89, (1S,2R) and (1R,2S)-2-(4-chlorophenyl)-1′-(3-(4-methylpiperazine-1-carbonyl)phenyl)spiro[cyclopropane-1,3′-indolin]-2′-one], with 1400 nM; and `CS(=O)(=O)N1CCN(C(=O)c2cccc(N3C(=O)[C@]4(C[C@@H]4c4ccc(Cl)cc4)c4ccccc43)c2)CC1` (racemic) [Example 90, (1R,2S) and (1S,2R)-2-(4-chlorophenyl)-1′-(3-(4-(methylsulfonyl)piperazine-1-carbonyl)phenyl)spiro[cyclopropane-1,3′-indolin]-2′-one], with 1470 nM. To `CS(=O)(=O)NC(=O)c1cccc(N2C(=O)[C@@]3(C[C@@H]3c3ccc(Cl)cc3)c3ccccc32)c1` (racemic) [Example 91, (1R,2R) and (1S,2S)-3-(2-(4-chlorophenyl)-2′-oxospiro[cyclopropane-1,3′-indoline]-1′-yl)-N-(methylsulfonyl)benzamide] belongs 1550 nM. With `O=C(O)c1cc(N2CCOC2=O)cc(N2C(=O)[C@]3(C[C@H]3c3ccc(Cl)cc3)c3ccccc32)c1` (racemic) [Example 92, (1S,2S) and (1R,2R)-3-(2-(4-chlorophenyl)-2′-oxospiro[cyclopropane-1,3′-indoline]-1′-yl)-5-(2-oxooxazolidin-3-yl)benzoic acid], the EC50 is 870 nM.

Consider `CS(=O)(=O)c1cc(C(=O)O)cc(N2C(=O)[C@]3(C[C@H]3c3ccc(Cl)cc3)c3ccccc32)c1` (racemic) [Example 93, (1S,2S) and (1R,2R)-3-(2-(4-chlorophenyl)-2′-oxospiro[cyclopropane-1,3′-indoline]-1′-yl)-5-(methylsulfonyl)benzoic acid], for which the EC50 worked out at 910 nM. For the compound `O=C(O)c1cc(N2CCCC2=O)cc(N2C(=O)[C@]3(C[C@H]3c3ccc(Cl)cc3)c3ccccc32)c1` (racemic) [Example 94, (1S,2S) and (1R,2R)-3-(2-(4-chlorophenyl)-2′-oxospiro[cyclopropane-1,3′-indoline]-1′-yl)-5-(2-oxopyrrolidin-1-yl)benzoic acid], the EC50 worked out at 1500 nM. To `CNC(=O)c1cccc(CN2C(=O)[C@@]3(C[C@H]3c3ccc(Cl)cc3)c3ccccc32)c1` (racemic) [Example 110, (1R,2S) and (1S,2R)-3-((2-(4-chlorophenyl)-2′-oxospiro[cyclopropane-1,3′-indoline]-1′-yl)methyl)-N-methylbenzamide] belongs 1370 nM; to `O=C(NCCCN1CCOCC1)c1cccc(CN2C(=O)[C@@]3(C[C@H]3c3ccc(Cl)cc3)c3ccccc32)c1` (racemic) [Example 112, (1R,2S) and (1S,2R)-3-((2-(4-chlorophenyl)-2′-oxospiro[cyclopropane-1,3′-indoline]-1′-yl)methyl)-N-(3-morpholinopropyl)benzamide], 1270 nM.

With `CN(C)CCN1CCN(C(=O)c2cccc(CN3C(=O)[C@@]4(C[C@H]4c4ccc(Cl)cc4)c4ccccc43)c2)CC1` (racemic) [Example 113, (1R,2S) and (1S,2R)-2-(4-chlorophenyl)-1′-(3-(4-(2-(dimethylamino)ethyl)piperazine-1-carbonyl)benzyl)spiro[cyclopropane-1,3′-indolin]-2′-one], the EC50 worked out at 1840 nM.

In the case of `O=C(NCCN1CCOCC1)c1cccc(CN2C(=O)[C@@]3(C[C@H]3c3ccc(Cl)cc3)c3ccccc32)c1` (racemic) [Example 114, (1R,2S) and (1S,2R)-3-((2-(4-chlorophenyl)-2′-oxospiro[cyclopropane-1,3′-indoline]-1′-yl)methyl)-N-(2-morpholinoethyl)benzamide], the EC50 is 6480 nM. In the case of `CS(=O)(=O)N1CCN(C(=O)c2cccc(CN3C(=O)[C@@]4(C[C@H]4c4ccc(Cl)cc4)c4ccccc43)c2)CC1` (racemic) [Example 115, (1R,2S) and (1S,2R)-2-(4-chlorophenyl)-1′-(3-(4-(methylsulfonyl)piperazine-1-carbonyl)benzyl)spiro[cyclopropane-1,3′-indolin]-2′-one], the EC50 worked out at 5140 nM.

Regarding `O=C(Nc1cc(C2CC2)n[nH]1)c1cccc(CN2C(=O)[C@]3(C[C@@H]3c3ccc(Cl)cc3)c3ccccc32)c1` (racemic) [Example 116, (1S,2R) and (1R,2S)-3-((2-(4-chlorophenyl)-2′-oxospiro[cyclopropane-1,3′-indoline]-1′-yl)methyl)-N-(3-cyclopropyl-1H-pyrazol-5-yl)benzamide], the EC50 came to 4330 nM.

For `O=C(Nc1cc(C2CC2)[nH]n1)c1cccc(CN2C(=O)[C@]3(C[C@@H]3c3ccc(Cl)cc3)c3ccccc32)c1` (racemic) [Example 117, (1S,2R) and (1R,2S)-3-((2-(4-chlorophenyl)-2′-oxospiro[cyclopropane-1,3′-indoline]-1′-yl)methyl)-N-(5-cyclopropyl-1H-pyrazol-3-yl)benzamide], the EC50 stood at 990 nM.

Turning to `O=C1N(CC2CCNCC2)c2ccccc2[C@@]12C[C@@H]2c1ccc(Cl)cc1` (racemic) [Example 124, (1S,2R) and (1R,2S)-2-(4-chlorophenyl)-1′-(piperidin-4-ylmethyl) Spiro[cyclopropane-1,3′-indolin]-2′-one], the EC50 came out at 5400 nM.

One may read the EC50 as the concentration needed to bring the measured effect to its halfway point.
